The text below walks through data of patent publication US20190000860A1, “USE OF COMPOSITIONS MODULATING CHROMATIN STRUCTURE FOR GRAFT VERSUS HOST DISEASE (GVHD)” (Dana-Farber Cancer Institute, Inc., priority 2014, published 2019).

Series [1] has as its system mice with cGVHD. The class given is in vivo. The conditions noted are these: for survival after 60 days: mice given BM and T-cells, treatment began 28 days post-transplant (Day 28-56), JQ5 or UNC1999 75 mg/Kg 3 days a week, Bcl6 peptidomimetic every day (Table 3, FIG. 8). As for the experimental part:
B10.BR recipients were conditioned with cytoxan on days −3 and −2 (120 mg/kg/day i.p.). On day −1, recipients received TBI by x-ray (8.3 Gy). B6 donor BM was T-cell depleted with anti-Thy1.2 mAb followed by rabbit complement. T-cells were purified from spleens by incubation with biotin-labeled anti-CD19, anti-CD11b, anti-CD11c, anti-NK1.1 and anti-γδTCR (eBioscience), followed by strepavidin beads and depletion with magnetic column (StemCell Technologies). On day 0, recipients received 10×10^6 T cell depleted BM cells with or without allogeneic spleen purified T cells (0.075-0.1×106), Weights of individual mice were recorded weekly. Where indicated, recipients in BM and T cell groups were given EZH2 inhibitor (either JQ-EZH2-5 ([…]) or JQ1 (50 μg/animal/Daily) in 10% Hydroxypropyl-beta-cyclodextrin and DMSO in a 9:[…]) in PBS.
Animals in this experiment were transplanted with wild-type BM and T-cells and then treated with either Vehicle, EZH2 inhibitor (JQ5 or UNC1999) or Bcl6 inhibitor. Administration of UNC1999 was toxic, resulting in less than 40% survival 63 days post-transplant. (FIG. 8).

For series [2], the system named is mice with cGVHD. The series is described as follows: Pulmonary function tests (lung resistance, elastance, compliance; forced oscillation technique, Scireq Flexivent). Type of series: in vivo, mouse (B10.BR recipients). As for the experimental part:
B10.BR recipients were conditioned with cytoxan on days −3 and −2 (120 mg/kg/day i.p.). On day −1, recipients received TBI by x-ray (8.3 Gy). B6 donor BM was T-cell depleted with anti-Thy1.2 mAb followed by rabbit complement. T-cells were purified from spleens by incubation with biotin-labeled anti-CD19, anti-CD11b, anti-CD11c, anti-NK1.1 and anti-γδTCR (eBioscience), followed by strepavidin beads and depletion with magnetic column (StemCell Technologies). On day 0, recipients received 10×10^6 T cell depleted BM cells with or without allogeneic spleen purified T cells (0.075-0.1×106), Weights of individual mice were recorded weekly. Where indicated, recipients in BM and T cell groups were given EZH2 inhibitor (either JQ-EZH2-5 (75 μg/animal/3 times a week) or JQ1 (50 μg/animal/Daily) in 10% Hydroxypropyl-beta-cyclodextrin and DMSO in a 9:1 ratio) or Bcl 79-6 (50 μg/animal/three times a week) in PBS.
(§1) In particular, B10.BR mice were conditioned with 120 mg/Kg of cyclophosphamide on day −3 and −2 and subjected to total body irradiation (830X) on day −1. On Day 0 mice were transplanted with wild type B6 bone marrow with or without splenocytes or purified splenic T cells. Day 28 following transplantation, mice were either given vehicle control or JQ5 (75 mg/Kg 3× a week) until day 56. On Day 60 mice were subjected to forced oscillation technique on the Scireq Flexivent system. Tissues were harvested and analyzed for collagen deposition by trichrome staining, Ig deposition, presence of germinal centers, germinal center B cells, and T follicular helper cells.
as §1, with “Pulmonary function tests were performed on animals treated with Bcl 79-6. The presence of Germinal Center B cells and fibrosis in lungs were also assessed.” for “In particular,”, “Wild Type” for “wild type”, “Bone” for “bone”, “Bcl6 79-6 (50” for “JQ5 (75”, “Daily)” for “3× a week)”, “cells” for “cells,”

The test system of series [3] is mice with cGVHD. The series is described as follows: Collagen deposition in the lungs (trichrome staining). Type of series: in vivo, mouse (B10.BR recipients). The conditions noted are these: for collagen deposition in the lungs vs Vehicle-treated mice: Table 3 experiment, treatment Day 28-56, JQ5 75 mg/Kg 3 days a week, Bcl6 peptidomimetic every day (FIG. 10, 13). How it is done: (§2) B10.BR recipients were conditioned with cytoxan on days −3 and −2 (120 mg/kg/day i.p.). On day −1, recipients received TBI by x-ray (8.3 Gy). B6 donor BM was T-cell depleted with anti-Thy1.2 mAb followed by rabbit complement. T-cells were purified from spleens by incubation with biotin-labeled anti-CD19, anti-CD11b, anti-CD11c, anti-NK1.1 and anti-γδTCR (eBioscience), followed by strepavidin beads and depletion with magnetic column (StemCell Technologies). On day 0, recipients received 10×10^6 T cell depleted BM cells with or without allogeneic spleen purified T cells (0.075-0.1×106), Weights of individual mice were recorded weekly. Where indicated, recipients in BM and T cell groups were given EZH2 inhibitor (either JQ-EZH2-5 (75 μg/animal/3 times a week) or JQ1 (50 μg/animal/Daily) in 10% Hydroxypropyl-beta-cyclodextrin and DMSO in a 9:[…]) in PBS.
as §1
as §1, with “Pulmonary function tests were performed on animals treated with Bcl 79-6. The presence of Germinal Center B cells and fibrosis in lungs were also assessed.” for “In particular,”, “Wild Type” for “wild type”, “Bone” for “bone”, “Bcl6 79-6 (50” for “JQ5 (75”, “Daily)” for “3× a week)”, “cells” for “cells,”

Series [4] concerns germinal center B cells. The series is described as follows: Germinal center B cells in cGVHD mice. The class given is in vivo, mouse (B10.BR recipients). The conditions noted are these: for germinal center B cells in the spleens: Table 3 experiment, Bcl6 peptidomimetic every day, Day 28-56 (FIG. 12). How it is done:
as §2, §1
Pulmonary function tests were performed on animals treated with Bcl 79-6. The presence of Germinal Center B cells and fibrosis in lungs were also assessed. B10.BR mice were conditioned with 120 mg/Kg of cyclophosphamide on day −3 and −2 and subjected to total body irradiation (830X) on day −1. […] Tissues were harvested and analyzed for collagen deposition by trichrome staining, Ig deposition, presence of germinal centers, germinal center B cells and T follicular helper cells.

For series [5], the system named is mice with cGVHD. The series is described as follows: Pulmonary function tests (lung resistance, elastance, compliance; forced oscillation technique, Scireq Flexivent). The class given is in vivo, mouse (B10.BR recipients). The source holds these as a separate data set.
Where [6] appears, read: Table 6 experiment, Bcl6 79-6 50 mg/Kg Daily, day 28 until day 56 (FIG. 19), 50 mg/kg.
[7] abbreviates: Table 6 experiment, Bcl6 79-6 50 mg/Kg Daily, day 28 until day 56, measured Day 60 (FIG. 19).
Setting [8] is: additional experiments (not shown), JQ1 treatment.

Bounds are passed on as bounds.

With `CCCc1cc(C)[nH]c(=O)c1CNC(=O)c1cc(-c2ccc(N3CCN(C(C)C)CC3)nc2)cc2c1cnn2C(C)C` [UNC1999], the “survival after 60 days” value in series [1] is listed as less than 40%. Also, the “survival 63 days post-transplant” value in series [1] (mice given wild-type BM and T-cells, 75 mg/KG UNC1999 3 days a week, Day 28-56 (Table 3, FIG. 8)) is “less than 40%”.

In the case of `O=C(O)CC(C(=O)O)N1C(=O)/C(=C2/C(=O)Nc3ccc(Br)cc32)SC1=S` (stereo not shown) [79-6], the “survival after 60 days” value in series [1] worked out at 100%. Moreover, the “pulmonary function (lung resistance, elastance and compliance) vs Vehicle-treated mice” value in series [2] (Table 3 experiment, treatment Day 28-56, JQ5 75 mg/Kg 3 days a week, Bcl6 peptidomimetic every day (FIG. 9, 11)) is “improved pulmonary function”. For the same compound, the “collagen deposition in the lungs vs Vehicle-treated mice” value in series [3] was “decreased”. Also, the “collagen deposition in the lungs vs Vehicle-treated mice” value in series [3] (listed as Bcl6 79-6) is listed as “decreased collagen deposition”. The “collagen in Trichrome staining (lungs)” value in series [3] (setting [6]) is listed as “decreased collagen”. The “germinal center B cells in the spleens” value in series [4] was “reduction”. Besides, the “germinal center B cells in the spleens” value in series [4] (listed as Bcl6 79-6) is “decreased germinal center B cells”. Further, in series [4] (setting [6]), the “Germinal Center B cells” value is “decreased Germinal Center B cells”. Besides, in series [5] (setting [7]), the lung compliance result is reported as “increase”, the lung elastance result was “decrease”, the lung resistance result was “decrease” and the pulmonary function result is on record as “Restored pulmonary function”.

In the case of `Cc1sc2c(c1C)C(c1ccc(Cl)cc1)=N[C@@H](CC(=O)OC(C)(C)C)c1nnc(C)n1-2` [JQ1], in series [2] (setting [8]), the “compliance in pulmonary function tests vs vehicle-treated control animals” value was “significantly increased”, the “elastance in pulmonary function tests vs vehicle-treated control animals” value is recorded as “decreased” and the “resistance in pulmonary function tests vs vehicle-treated control animals” value is “decreased”. In series [3] (Table 4 experiment, JQ1 50 mg/Kg Daily, Day 28-56 (FIG. 15), 50 mg/kg), the “collagen deposition in the lungs vs Vehicle-treated control mice” value is on record as “decreased collagen deposition”. In series [5] (Table 4 experiment, JQ1 50 mg/Kg Daily, Day 28-56 (FIG. 14), 50 mg/kg), the “pulmonary function vs Vehicle-treated control mice” value is “improves pulmonary function”.
